Structures are written as SMILES. Numbers after ± are expanded uncertainties.

The conditions of data set [1]: 101.3 kPa, Liquid; for viscosity: Capillary tube (Ostwald / Ubbelohde) method; for mass density: Vibrating tube method.
Data set [2] in a line: xn = mol fraction of the nth substance listed. As to conditions: 101.3 kPa, Liquid, x2 = 0; for viscosity: Capillary tube (Ostwald / Ubbelohde) method; for mass density: Vibrating tube method.

In the case of `CC(O)CNCC(C)O` (stereo unspecified) [N-(2-hydroxypropyl)-2-hydroxy-1-propanamine], the viscosity worked out at 186.6 ± 4.6 mPa·s in data set [1] (318.65 K), 125.7 ± 2.3 mPa·s in data set [1] (323.15 K), 57.99 ± 0.62 mPa·s in data set [1] (333.15 K) and 29.55 ± 0.33 mPa·s in data set [1] (343.15 K). In addition, the mass density in data set [1] (318.65 K) was 988.22 ± 1 kg/m3; in data set [1] (323.15 K), 984.9 ± 1 kg/m3; in data set [1] (333.15 K), 977.3 ± 1 kg/m3; in data set [1] (343.15 K), 969.58 ± 0.99 kg/m3.
Consider `O` [water], for which the viscosity stood at 0.89 ± 0.006 mPa·s in data set [1] (298.15 K); 0.653 ± 0.004 mPa·s in data set [1] (313.15 K); 0.595 ± 0.004 mPa·s in data set [1] (318.65 K); 0.547 ± 0.004 mPa·s in data set [1] (323.15 K); 0.466 ± 0.003 mPa·s in data set [1] (333.15 K); 0.405 ± 0.003 mPa·s in data set [1] (343.15 K). The mass density came out at 988.04 ± 0.08 kg/m3 in data set [1] (323.15 K), 983.12 ± 0.08 kg/m3 in data set [1] (333.15 K) and 977.77 ± 0.08 kg/m3 in data set [1] (343.15 K).
As to `O` [water] + CC(O)CNCC(C)O, the viscosity is 0.89 ± 0.006 mPa·s in data set [2] (298.15 K); 0.653 ± 0.004 mPa·s in data set [2] (313.15 K); 0.595 ± 0.004 mPa·s in data set [2] (318.65 K); 0.547 ± 0.004 mPa·s in data set [2] (323.15 K); 0.466 ± 0.003 mPa·s in data set [2] (333.15 K); 0.405 ± 0.003 mPa·s in data set [2] (343.15 K). In addition, the mass density in data set [2] (323.15 K) is given as 988.04 ± 0.08 kg/m3; in data set [2] (333.15 K), 983.12 ± 0.08 kg/m3; in data set [2] (343.15 K), 977.77 ± 0.08 kg/m3.

The values are drawn from the NIST ThermoML archive (doi:10.1021/je030132i).
